Our source for the EC50 and IC50 values is patent US10669272B2, “Substituted naphthyridinone compounds useful as T cell activators” (BRISTOL-MYERS SQUIBB COMPANY, priority 2018, dated 2020).

Assay [1] concerns naïve human CD8 T cells. The assay can be described thus: Human CD8 T cells IFN-γ assay.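 Note: Naïve human CD8 T cells stimulated with plate-bound anti-CD3 and soluble anti-CD28, IFN-γ in supernatant quantified by AlphaLISA and converted to pg/mL.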 In kind it is cell-based. Conditions: normalized to 3 μM reference compound with anti-CD3 plus anti-CD28 as 100% activation, read-out: HuCD8 INFG Normalized EC50.
In assay [2] the target is T1, human DGKζ (Homo sapiens, UniProt Q13574).
T1 construct: TVMV protease cleavage site (C); Hexa-His (C); made in house; host or cells: Sf9 insect cells (baculovirus, Bac-to-Bac)
T1 sequence (Q13574 with tags, fused parts or gaps isoform Q13574-4): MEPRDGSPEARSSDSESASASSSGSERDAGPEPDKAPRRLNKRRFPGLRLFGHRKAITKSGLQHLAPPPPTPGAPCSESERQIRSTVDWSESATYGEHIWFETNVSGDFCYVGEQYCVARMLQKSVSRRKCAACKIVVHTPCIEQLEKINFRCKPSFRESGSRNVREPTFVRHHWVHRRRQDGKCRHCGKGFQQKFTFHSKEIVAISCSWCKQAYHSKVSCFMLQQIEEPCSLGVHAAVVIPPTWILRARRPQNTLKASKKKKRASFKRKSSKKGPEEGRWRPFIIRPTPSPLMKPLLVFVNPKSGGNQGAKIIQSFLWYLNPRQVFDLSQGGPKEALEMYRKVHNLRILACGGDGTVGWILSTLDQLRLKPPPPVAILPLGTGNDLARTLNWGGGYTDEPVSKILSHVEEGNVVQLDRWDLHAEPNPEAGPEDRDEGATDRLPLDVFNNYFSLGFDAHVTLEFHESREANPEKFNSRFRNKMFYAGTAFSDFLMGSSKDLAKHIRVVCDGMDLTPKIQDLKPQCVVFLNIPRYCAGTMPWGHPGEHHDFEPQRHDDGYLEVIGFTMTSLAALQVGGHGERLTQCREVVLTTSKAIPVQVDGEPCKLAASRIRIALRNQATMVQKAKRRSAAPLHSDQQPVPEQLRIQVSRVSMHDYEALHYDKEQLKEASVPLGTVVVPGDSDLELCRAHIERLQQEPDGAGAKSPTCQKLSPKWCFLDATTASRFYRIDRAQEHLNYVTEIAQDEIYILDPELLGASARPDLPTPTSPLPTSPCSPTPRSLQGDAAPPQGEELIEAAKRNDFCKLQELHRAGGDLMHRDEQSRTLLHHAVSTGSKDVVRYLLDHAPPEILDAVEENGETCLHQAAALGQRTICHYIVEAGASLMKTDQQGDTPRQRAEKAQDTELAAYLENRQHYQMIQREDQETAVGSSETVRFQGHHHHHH
The assay can be described thus: DGKζ LIPGLO assay (extruded liposome substrate), in vitro DGK inhibition. Conditions: liposome (LIPGLO) assay; read-out: DGKz LIPGLO IC50. In kind it is biochemical.

Assay [3] has as its system Human venous whole blood. The assay can be described thus: Human whole blood IFN-γ assay.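 Note: blood from healthy donors exposed to compound for 1 h before stimulation with anti-CD3 and anti-CD28 at 1 µg/mL each, IFN-γ quantified in supernatant by AlphaLISA.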 It counts as cell-based. The conditions noted are these: human whole blood, normalized to 3 μM reference compound with anti-CD3 plus anti-CD28 as 100% activation, read-out: INFg Whole Blood Normalized Agonist EC50.
Procedure: Human Whole Blood IFN-γ Assay
Human venous whole blood (22.5 μL per well), obtained from healthy donors, was pre-treated with compounds for one hour at 37° C. in a humidified 95% air/5% CO2 incubator. The blood was stimulated with 2.5 μL anti-human CD3 and anti-CD28 mAb at a final concentration of 1 μg/mL each for 24 hours at 37° C. IFN-γ in the supernatants was measured using AlphLISA kit (Cat # AL217).
Assay [4] has as its target T2, human DGKα (Homo sapiens, UniProt P23743).
T2 construct: TVMV protease cleavage site (C); Hexa-His (C); made in house; host or cells: Sf9 insect cells (baculovirus, Bac-to-Bac)
The assay can be described thus: DGKα LIPGLO assay (extruded liposome substrate), in vitro DGK inhibition. It counts as biochemical. Conditions: liposome (LIPGLO) assay; read-out: DGKa LIPGLO IC50.

Structures are written as SMILES. Read-outs that look alike come from different tables or passages of the source.

T2 sequence (P23743 with tags, fused parts or gaps): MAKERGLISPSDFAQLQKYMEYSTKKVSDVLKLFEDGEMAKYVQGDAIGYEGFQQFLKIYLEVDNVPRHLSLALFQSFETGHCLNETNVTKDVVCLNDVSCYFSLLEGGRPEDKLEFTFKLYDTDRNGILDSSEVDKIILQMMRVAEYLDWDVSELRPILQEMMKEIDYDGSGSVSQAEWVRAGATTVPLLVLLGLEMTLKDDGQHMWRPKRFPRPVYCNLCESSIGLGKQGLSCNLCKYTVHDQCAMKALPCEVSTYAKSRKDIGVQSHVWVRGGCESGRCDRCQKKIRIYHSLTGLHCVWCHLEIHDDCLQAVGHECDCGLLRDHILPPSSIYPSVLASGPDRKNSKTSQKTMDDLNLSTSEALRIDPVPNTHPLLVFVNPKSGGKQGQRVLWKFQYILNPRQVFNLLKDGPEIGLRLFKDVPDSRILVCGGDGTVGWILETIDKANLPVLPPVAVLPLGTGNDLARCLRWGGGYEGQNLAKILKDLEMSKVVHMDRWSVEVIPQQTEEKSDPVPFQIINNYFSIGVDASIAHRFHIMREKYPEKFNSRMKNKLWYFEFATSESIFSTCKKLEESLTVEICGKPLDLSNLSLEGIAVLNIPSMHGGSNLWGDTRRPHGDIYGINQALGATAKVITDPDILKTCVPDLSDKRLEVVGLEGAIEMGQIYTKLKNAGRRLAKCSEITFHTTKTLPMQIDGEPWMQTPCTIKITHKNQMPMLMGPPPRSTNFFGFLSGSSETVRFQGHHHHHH

In the case of `C[C@@H]1CN(c2cc(=O)n(C)c3ccc(C#N)nc23)[C@@H](C)CN1C(c1ccc(F)cc1)c1ncccc1F` (single isomer, unassigned) [Example 188], the EC50 in assay [1] came to 0.014 µM; in assay [3], 0.66 µM. In addition, the results for the IC50 in assay [2] and in assay [4] were 3.8 µM and 0.69 µM, respectively.

With `C[C@@H]1CN(c2cc(=O)n(C)c3ccc(C#N)nc23)[C@@H](C)CN1C(c1ccc(Cl)cc1)c1ccccn1` (single isomer, unassigned) [Example 381], the EC50 in assay [1] (Homo sapiens, T-cell, 20 h) stood at 0.0039 µM; in assay [3], 0.18 µM. In addition, the IC50 in assay [2] turned out to be 0.5 µM; in assay [4], 0.36 µM.

Turning to `C[C@@H]1CN(c2cc(=O)n(C)c3ccc(C#N)nc23)[C@@H](C)CN1C(c1ccccc1)c1ccc(F)cc1F` (stereo partly drawn) [Example 283, 8-[(2S,5R)-4-[(2,4-difluorophenyl)(phenyl)methyl]-2,5-dimethylpiperazin-1-yl]-5-methyl-6-oxo-5,6-dihydro-1,5-naphthyridine-2-carbonitrile], the EC50 in assay [1] (Homo sapiens, T-cell, 20 h) came to 0.068 µM; in assay [3] (Homo sapiens, 24 h), 0.89 µM. For the same compound, the IC50 in assay [2] is 1.1 µM; in assay [4], 0.65 µM.

On to `CC(C)[C@H]1CN(c2c(C#N)c(=O)n(C)c3ccc(C#N)nc23)CCN1C(c1ccc(F)cc1)c1ccc(F)cc1` [Example 12, (S)-8-(4-(bis(4-fluorophenyl)methyl)-3-isopropylpiperazin-1-yl)-5-methyl-6-oxo-5,6-dihydro-1,5-naphthyridine-2,7-dicarbonitrile], for which the EC50 in assay [1] (Homo sapiens, T-cell, 20 h) was 10 µM; in assay [3] (Homo sapiens, 24 h), 13 µM. The IC50 in assay [2] was 58 µM; in assay [4], 2.7 µM.

On to `CC(C)Oc1ncccc1C(c1ccc(F)cc1)N1C[C@H](C)N(c2cc(=O)n(C)c3ccc(C#N)nc23)C[C@H]1C` (single isomer, unassigned) [Example 208], for which the EC50 in assay [1] was 0.25 µM; in assay [3], 1 µM. Besides, the IC50 came out at 0.68 µM in assay [2] and 11 µM in assay [4].

Turning to `Cc1cccc(C(c2ccc(F)cc2)N2C[C@H](C)N(c3cc(=O)n(C)c4ccc(C#N)nc34)C[C@H]2C)c1` (single isomer, unassigned) [Example 223], the EC50 in assay [1] (Homo sapiens, T-cell, 20 h) is 0.029 µM; in assay [3] (Homo sapiens, 24 h), 0.87 µM. For the same compound, the IC50 came to 0.034 µM in assay [2] and 0.28 µM in assay [4].

`CCOc1cc(F)ccc1C(c1ccc(F)cc1)N1C[C@H](C)N(c2cc(=O)n(C)c3ccc(C#N)nc23)C[C@H]1C` (single isomer, unassigned) [Example 229]: the EC50 in assay [1] worked out at 1 µM; in assay [3] (Homo sapiens, 24 h), 8.3 µM. The values for the concentration for half-maximal inhibition (IC50) in assay [2] and in assay [4] were 0.45 µM and 58 µM, respectively.

With `C[C@@H]1CN(c2cc(=O)n(C)c3ccc(C#N)nc23)[C@@H](C)CN1Cc1ccc(OC(F)(F)F)cc1F` [Example 243, 8-[(2S,5R)-4-{[2-fluoro-4-(trifluoromethoxy)phenyl]methyl}-2,5-dimethylpiperazin-1-yl]-5-methyl-6-oxo-5,6-dihydro-1,5-naphthyridine-2-carbonitrile], the EC50 in assay [1] (Homo sapiens, T-cell, 20 h) was 0.16 µM; in assay [3] (Homo sapiens, 24 h), 1.5 µM. For the same compound, the figures for the IC50 in assay [2] and in assay [4] were 1.9 µM and 0.29 µM, respectively.

Take `COc1ccc(C(c2cccc(F)c2)N2C[C@H](C)N(c3cc(=O)n(C)c4ccc(C#N)nc34)C[C@H]2C)nc1` (single isomer, unassigned) [Example 687]: the EC50 turned out to be 0.017 µM in assay [1] (Homo sapiens, T-cell, 20 h) and 0.27 µM in assay [3]. Moreover, the IC50 in assay [2] was 0.73 µM; in assay [4], 1.6 µM.

Consider `Cc1ccc(C(c2ccc(Cl)cc2)N2C[C@H](C)N(c3cc(=O)n(C)c4ccc(C#N)nc34)C[C@H]2C)nc1` (single isomer, unassigned) [Example 214], for which the EC50 in assay [1] worked out at 0.12 µM; in assay [3] it was 0.62 µM. Also, the IC50 in assay [2] stood at 0.29 µM; in assay [4] it was 0.072 µM.

Usually EC50 stands for the midpoint of the concentration-response curve. The term IC50 denotes the concentration that gives 50% inhibition.
